IC50 data for 24 compounds are collected here from patent publication US10106526B2, “Inhibitors of cyclin-dependent kinase 7 (CDK7)” (SYROS PHARMACEUTICALS, INC., priority 2014, dated 2018).

In assay [1] the test system is Jurkat cells. Put plainly: Inhibition of proliferation of Jurkat cells (CellTiter-Glo, 72 hour). As to conditions: 10 μM to 316 pM. In kind it is cell-based, human. As to the method:
Jurkat cells are a cell line established from a human T cell leukemia. Representative compounds of the invention were tested at different concentrations (from 10 μM to 316 pM; 0.5 log serial dilutions) for their ability to inhibit the proliferation of Jurkat cells. Known CDK inhibitors flavopiridol and triptolide were used as positive controls. Cells were grown in RPMI 1640+10% FBS+1% Glutamax. The cells were supplemented with FBS (Life Technologies) and 100 U·mL^− penicillin, 100 μg·mL^− streptomycin (Invitrogen) and cultured at 37° C. in a humidified chamber in the presence of 5% CO2. Proliferation assays were conducted over a 72 hour time period. CellTiter-Glo® (Promega Corporation, Madison, Wis. USA) was used to assess the anti-proliferative effects of the compounds following manufacturer's directions and utilizing the reagents supplied with the CellTiter-Glo® kit. In this table, “A” represents an IC50 of less than 500 nM; “B” an IC50 of between 500 nM and 5 μM; and “C” an IC50 of greater than 5 μM.

In assay [2] the test system is A673 cells. The experiment in a line: Inhibition of proliferation of A673 cells (CyQUANT, 72 hour). As to conditions: 72 hour proliferation. In kind it is cell-based, human. The protocol: A673 cells are a cell line derived from human muscle Ewing's sarcoma. Representative compounds of the invention were tested at different concentrations (from 4 μM to 126.4 pM; 0.5 log serial dilutions) for their ability to inhibit the proliferation of A673 cells. Known CDK inhibitors flavopiridol and triptolide were used as positive controls. Cells were grown in Dulbecco's Modified Eagle's Medium, +10% FBS+1 mM Sodium Pyruvate. The cells were cultured at 37° C. in a humidified chamber in the presence of 5% CO2. Proliferation assays were conducted over a 72 hour time period. CyQUANT® (Life Technologies, Chicago, Ill. USA) was used to assess the anti-proliferative effects of the compounds following manufacturer's directions and utilizing the reagents supplied with the CyQUANT® kit. In this table, “A” represents an IC50 of less than 500 nM; “B” an IC50 of between 500 nM and 5 μM; and “C” an IC50 of greater than 5 μM.

Assay [3] deals with T1, CDK7 (Homo sapiens, UniProt P50613).
T1 construct: purchased Life Technologies (Adapta kinase assay service)
T1 sequence (P50613 whole entry): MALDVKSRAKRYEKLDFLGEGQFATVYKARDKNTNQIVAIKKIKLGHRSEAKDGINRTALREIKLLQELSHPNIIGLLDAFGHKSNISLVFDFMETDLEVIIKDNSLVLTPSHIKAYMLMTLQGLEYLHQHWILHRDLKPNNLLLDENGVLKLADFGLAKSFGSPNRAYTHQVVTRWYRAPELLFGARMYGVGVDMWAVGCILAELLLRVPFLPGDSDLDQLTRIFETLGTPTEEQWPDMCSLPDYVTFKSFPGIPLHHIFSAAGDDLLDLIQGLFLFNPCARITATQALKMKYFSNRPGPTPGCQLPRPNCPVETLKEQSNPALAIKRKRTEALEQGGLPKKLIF
T1 sequence (P51946 whole entry partner): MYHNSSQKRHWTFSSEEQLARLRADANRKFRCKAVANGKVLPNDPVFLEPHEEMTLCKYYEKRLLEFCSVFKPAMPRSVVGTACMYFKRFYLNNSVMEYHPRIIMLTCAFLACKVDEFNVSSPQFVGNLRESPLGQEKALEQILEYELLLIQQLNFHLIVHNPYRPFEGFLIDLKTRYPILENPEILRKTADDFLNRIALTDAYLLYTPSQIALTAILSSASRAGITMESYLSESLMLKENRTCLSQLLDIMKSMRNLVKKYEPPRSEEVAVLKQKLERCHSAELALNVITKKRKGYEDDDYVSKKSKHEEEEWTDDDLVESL
T1 sequence (P51948 whole entry partner): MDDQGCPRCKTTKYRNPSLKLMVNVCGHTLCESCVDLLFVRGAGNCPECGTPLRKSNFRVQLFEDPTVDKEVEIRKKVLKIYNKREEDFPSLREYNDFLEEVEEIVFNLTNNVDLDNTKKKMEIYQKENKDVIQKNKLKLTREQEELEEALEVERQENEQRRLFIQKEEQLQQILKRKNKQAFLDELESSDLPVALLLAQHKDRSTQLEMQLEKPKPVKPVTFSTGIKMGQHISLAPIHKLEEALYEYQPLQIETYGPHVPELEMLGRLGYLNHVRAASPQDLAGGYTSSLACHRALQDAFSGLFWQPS
Put plainly: CDK7 kinase activity, Adapta kinase assay (Life Technologies). In kind it is biochemical. Conditions: Adapta kinase assay at Life Technologies; 10 μM down to 0.514 nM, 3-fold serial dilutions; read-out: CDK7 Inhibition (IC50). As to the method: Compounds of the invention were assayed for CDK7 activity at Life Technologies™ (Grand Island, N.Y.) using their commercially available Adapta® kinase assay services. Compounds were tested at concentrations ranging from 10 μM down to 0.514 nM in a series of 3-fold serial dilutions. Details of these assays, including substrates used, are available on the Life Technologies web site (http://www.lifetechnologies.com/us/en/home/life-science/drug-discovery/target-and-lead-identification-and-validation/kinasebiology/kinase-activity-assays.html).

Assay [4] deals with CDK7/Cyclin H/MAT1 trimeric complex (Homo sapiens, UniProt P50613). Put plainly: CDK7 kinase assay, Caliper/LabChip EZ Reader (Biortus Biosciences). In kind it is biochemical. Conditions: CDK7/Cyclin H/MAT1 10 nM, ATP 2 mM, FAM-CDK7tide 2 μM, 30 min incubation, read-out: CDK7 Inhibition (IC50). As to the method: Compounds of the invention were further assayed for CDK7 activity at Biortus Biosciences (Jiangyin, Jiangsu Province, P.R. of China) using a CDK7 kinase assay developed with a Caliper/LabChip EZ Reader (Perkin Elmer, Waltham, Mass.). […] The incubation period was chosen such that the total fraction of phosphorylated peptide product produced was <20% for the uninhibited kinase.
Sequence of CDK7/Cyclin H/MAT1 trimeric complex (P50613 whole entry): as the sequence (P50613 whole entry) above
Sequence of CDK7/Cyclin H/MAT1 trimeric complex (P51946 whole entry partner): as the sequence (P51946 whole entry partner) above
Sequence of CDK7/Cyclin H/MAT1 trimeric complex (P51948 whole entry partner): as the sequence (P51948 whole entry partner) above

For the compound `C=CC(=O)N1CCC(CNC2CCC(Nc3ncc(Cl)c(-c4c[nH]c5ccccc45)n3)CC2)CC1` (stereo not shown) [compound 163], the results for the concentration for half-maximal inhibition (IC50) in assay [1], in assay [2] and in assay [3] were less than 500 nM, less than 500 nM and less than 100 nM, respectively.
Turning to `C=C(F)C(=O)N1CCN([C@H]2CCC[C@@H](Nc3ncc(Cl)c(-c4c[nH]c5ccccc45)n3)C2)CC1` [compound 401], the figures for the 50% inhibitory concentration (IC50) in assay [4] and in assay [2] were less than 100 nM and less than 500 nM, respectively.
For `C=CC(=O)N1CCC(NC(=O)N2CCC[C@@H](Nc3ncc(Cl)c(-c4c[nH]c5ccccc45)n3)C2)CC1` [Compound 205], the IC50 in assay [1] was 500 to 5000 nM; in assay [2], less than 500 nM; in assay [3], 100 to 1000 nM.
For the compound `C=CC(=O)N1CCN([C@]23CCC[C@](Nc4ncc(Cl)c(-c5c[nH]c6ccccc56)n4)(CC2)C3)CC1` [Compound 408, 1-(4-((1R,5S)-5-(5-Chloro-4-(1H-indol-3-yl)pyrimidin-2-ylamino)bicyclo[3.2.1]octan-1-yl)piperazin-1-yl)prop-2-en-1-One], the IC50 was less than 100 nM in assay [4] and less than 500 nM in assay [2] (Homo sapiens).
With `CN(C)C/C=C/C(=O)N1CCCC(N2CC(Nc3ncc(Cl)c(-c4c[nH]c5ccccc45)n3)C2)C1` (stereo not shown) [compound 389], the IC50 in assay [4] was greater than 1000 nM; in assay [2] it was less than 500 nM.
For the compound `C=CC(=O)N[C@@H]1CN[C@H](C(=O)N[C@H]2CCC[C@@H](Nc3ncc(Cl)c(-c4c[nH]c5ccccc45)n3)C2)C1` [Compound 153, (2S,4S)-4-acrylamido-N-((1S,3R)-3-(5-chloro-4-(1H-indol-3-yl)pyrimidin-2-ylamino)cyclohexyl)pyrrolidine-2-carboxamide], the IC50 is less than 500 nM in assay [1] (Homo sapiens), less than 500 nM in assay [2] (Homo sapiens) and less than 100 nM in assay [3].
For the compound `C=CC(=O)N1CCC[C@@H](NCc2ccc(Nc3ncc(Cl)c(-c4c[nH]c5ccccc45)n3)cc2)C1` [compound 393], the IC50 was less than 100 nM in assay [4] and less than 500 nM in assay [2].
Consider `CN(C)C/C=C/C(=O)N1CCN([C@H]2CCC[C@@H](Nc3ncc(Cl)c(C4C(=O)Nc5ccccc54)n3)C2)CC1` (stereo partly drawn) [Compound 293, 3-(5-chloro-2-(((1R,3S)-3-(4-((E)-4-(dimethylamino)but-2-enoyl)piperazin-1-yl)cyclohexyl)amino)pyrimidin-4-yl)indolin-2-One], for which the values for the half-maximal inhibitory concentration (IC50) in assay [4] and in assay [2] (Homo sapiens) were 100 to 1000 nM and less than 500 nM, respectively.
On to `C=C(F)C(=O)Nc1ccc(C(=O)N[C@H]2CCC[C@@H](Nc3ncc(Cl)c(-c4c[nH]c5ccccc45)n3)C2)nc1` [compound 402], for which the values for the IC50 in assay [4] and in assay [2] were 100 to 1000 nM and less than 500 nM, respectively.
In the case of `O=C(/C=C/CN1CCOCC1)N1CCC(C(=O)N2CC[C@H](Nc3ncc(Cl)c(-c4c[nH]c5ccccc45)n3)C2)CC1` [Compound 211, (S,E)-1-(4-(3-((5-chloro-4-(1H-indol-3-yl)pyrimidin-2-yl)amino)pyrrolidine-1-carbonyl)piperidin-1-yl)-4-morpholinobut-2-en-1-One], the IC50 in assay [1] (Homo sapiens) is greater than 5000 nM; in assay [2] (Homo sapiens), less than 500 nM; in assay [3], 100 to 1000 nM.
In the same order, the values of `C=CC(=O)N1CCCC(CN(C(=O)C=C)C2CCC(Nc3ncc(Cl)c(-c4c[nH]c5ccccc45)n3)CC2)C1` (stereo not shown) [Compound 191-1, N-[4-[[5-chloro-4-(1H-indol-3-yl)pyrimidin-2-yl]amino]cyclohexyl]-N-[(1-prop-2-enoyl-3-piperidyl)methyl]prop-2-enamide] are less than 500 nM, 500 to 5000 nM and less than 100 nM.
For the compound `C=CC(=O)N1CCC(C(=O)N2CC[C@@H](Nc3ncc(Cl)c(-c4c[nH]c5ccccc45)n3)C2)CC1` [Compound 214, 1-[4-[(3R)-3-[[5-chloro-4-(1H-indol-3-yl)pyrimidin-2-yl]amino]pyrrolidine-1-carbonyl]-1-piperidyl]prop-2-en-1-One], the IC50 in assay [1] (Homo sapiens) was greater than 5000 nM; in assay [2] (Homo sapiens), less than 500 nM; in assay [3], 100 to 1000 nM.
In the same order, the values of `C=CC(=O)N1CCN(CC2(O)CCC[C@@H](Nc3ncc(Cl)c(-c4c[nH]c5ccccc45)n3)C2)CC1` (single isomer, unassigned) [Compound 187] are less than 500 nM, less than 500 nM and less than 100 nM.
Consider `C=CC(=O)N1CCC(CN(C)[C@H]2CCC[C@@H](Nc3ncc(Cl)c(-c4c[nH]c5ccccc45)n3)C2)CC1` [Compound 167], for which the half-maximal inhibitory concentration (IC50) in assay [1] (Homo sapiens) is less than 500 nM; in assay [2] (Homo sapiens), less than 500 nM; in assay [3] it was less than 100 nM.
Take `C=CC(=O)N1CCC(CNC2CCC(Nc3ncc(Cl)c(-c4c[nH]c5ccccc45)n3)CC2)CC1` (stereo not shown) [compound 184]: the IC50 in assay [1] is greater than 5000 nM; in assay [2], greater than 5000 nM; in assay [3] it was 100 to 1000 nM.
As for `C=CC(=O)N1CCCC(CNC2CCC(Nc3ncc(Cl)c(-c4c[nH]c5ccccc45)n3)CC2)C1` (stereo not shown) [Compound 190, 1-[3-[[[4-[[5-chloro-4-(1H-indol-3-yl)pyrimidin-2-yl]amino]cyclohexyl]amino]methyl]-1-piperidyl]prop-2-en-1-One], the IC50 in assay [1] (Homo sapiens) is 500 to 5000 nM; in assay [2] (Homo sapiens) it was less than 500 nM; in assay [3] it was less than 100 nM.
`CN(C)C/C=C/C(=O)Nc1cnn(CC2(O)CCC(Nc3ncc(Cl)c(-c4c[nH]c5ccccc45)n3)CC2)c1` (stereo not shown) [Compound 114, (E)-N-(1-((4-(5-chloro-4-(1H-indol-3-yl)pyrimidin-2-ylamino)-1-hydroxycyclohexyl)methyl)-1H-pyrazol-4-yl)-4-(dimethylamino)but-2-enamide]: the values for the IC50 in assay [1] (Homo sapiens), in assay [2] (Homo sapiens) and in assay [3] were greater than 5000 nM, greater than 5000 nM and less than 100 nM, respectively.
For `C=CC(=O)N1CCN([C@@H]2CCC[C@@H](Nc3ncc(Cl)c(-c4c[nH]c5ccccc45)n3)C2)CC1` [Compound 180], the IC50 was less than 500 nM in assay [1], less than 500 nM in assay [2] and 100 to 1000 nM in assay [3].
Consider `C=CC(=O)NC12CC(C(=O)N[C@H]3CCC[C@@H](Nc4ncc(Cl)c(-c5c[nH]c6ccccc56)n4)C3)(C1)C2` (racemic) [Compound 109, N-[(±)-3-{[5-chloro-4-(1H-indol-3-yl)pyrimidin-2-yl]amino}cyclohexyl]-3-(prop-2-enamido)bicyclo[1.1.1]pentane-1-carboxamide], for which the IC50 is less than 500 nM in assay [1] (Homo sapiens), less than 500 nM in assay [2] (Homo sapiens) and greater than 1000 nM in assay [3].
Consider `C=CC(=O)N1CCC(CN2CCC(Nc3ncc(Cl)c(-c4c[nH]c5ccccc45)n3)CC2)CC1` [Compound 141, 1-(4-((4-((5-chloro-4-(1H-indol-3-yl)pyrimidin-2-yl)amino)piperidin-1-yl)methyl)piperidin-1-yl)prop-2-en-1-One], for which the IC50 was less than 500 nM in assay [1] (Homo sapiens) and less than 100 nM in assay [3].
Regarding `C=CC(=O)N1CCCC(CN(C(=O)C=C)[C@H]2CC[C@@H](Nc3ncc(Cl)c(-c4c[nH]c5ccccc45)n3)CC2)C1` (single isomer, unassigned) [191-2], the IC50 in assay [1] is greater than 5000 nM; in assay [3] it was greater than 1000 nM.
In the case of `O=C(Nc1cccc(Nc2ncc(Cl)c(-c3c[nH]c4ccccc34)n2)c1)C1CCNCC1` [Compound 1006, N-(3-(5-chloro-4-(1H-indol-3-yl)pyrimidin-2-ylamino)phenyl)piperidine-4-carboxamide], the IC50 was 500 to 5000 nM in assay [1] (Homo sapiens) and less than 100 nM in assay [3].
In the same order, the values of `CN(C)C/C=C/C(=O)Nc1ccc(C(=O)Nc2cccc(Nc3ncc(Cl)c(-c4c[nH]c5ccccc45)n3)c2)nc1` [Compound 107, (E)-N-(3-(5-chloro-4-(1H-indol-3-yl)pyrimidin-2-ylamino)phenyl)-5-(4-(dimethylamino)but-2-enamido)picolinamide] are 500 to 5000 nM and less than 100 nM.
The corresponding values for `CN(C)C/C=C/C(=O)NCCc1cc2ccc(Nc3ncc(Cl)c(-c4c[nH]c5ccccc45)n3)cc2[nH]1` [Compound 175, (E)-N-(2-(6-(5-chloro-4-(1H-indol-3-yl)pyrimidin-2-ylamino)-1H-indol-2-yl)ethyl)-4-(dimethylamino)but-2-enamide] are less than 500 nM and less than 100 nM.

As usually defined, the IC50 is the concentration at which inhibition is half-maximal.
